Reference: ChEMBL document CHEMBL1201862, “PubChem BioAssay data set” (2004)
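Interpolation was linear, between the two tested concentrations surrounding the appropriate level; five concentrations were tested over 48 hours in 96-well plates. GI50 marks 50% less growth.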 Activity calls are given as the source filed them. No stated cut-off is given here; in the data, active = GI50 up to about 1.1 µM and inactive = higher.

Columns and labels:
Assay in all cases: NCI tumour cell line growth inhibition, 48 h
SK-OV-3 = system: SK-OV-3
NCI-H23 = system: NCI-H23
M14 = system: M14
UACC-62 = system: UACC-62
786-0 = system: 786-0
OVCAR-8 = system: OVCAR-8
KM-20L2 = system: KM-20L2
OVCAR-3 = system: OVCAR-3
M19-MEL = system: M19-MEL
RXF 393 = system: RXF 393
SN12C = system: SN12C
HCT-15 = system: HCT-15
HL-60 = system: HL-60
DMS-114 = system: DMS-114
RPMI-8226 = system: RPMI-8226
MOLT-4 = system: MOLT-4
OVCAR-5 = system: OVCAR-5
SR = system: SR
SNB-75 = system: SNB-75
LXFL 529 = system: LXFL 529
DMS-273 = system: DMS-273
LOX IMVI = system: LOX IMVI
ACHN = system: ACHN
SK-MEL-28 = system: SK-MEL-28
A549 = system: A549
HT-29 = system: HT-29
COLO 205 = system: COLO 205
TK-10 = system: TK-10
UACC-257 = system: UACC-257
NCI-H522 = system: NCI-H522
NCI-H460 = system: NCI-H460
SK-MEL-5 = system: SK-MEL-5
IGROV-1 = system: IGROV-1
UO-31 = system: UO-31
KM12 = system: KM12
SK-MEL-2 = system: SK-MEL-2
SF-268 = system: SF-268
HCC 2998 = system: HCC 2998
HOP-92 = system: HOP-92
OVCAR-4 = system: OVCAR-4
CAKI-1 = system: CAKI-1
K562 = system: K562
SW-620 = system: SW-620
U-251 = system: U-251
NCI-H226 = system: NCI-H226
SNB-19 = system: SNB-19
EKVX = system: EKVX
SF-539 = system: SF-539
SF-295 = system: SF-295
SNB-78 = system: SNB-78
HCT-116 = system: HCT-116
Malme-3M = system: Malme-3M
HOP-62 = system: HOP-62
A498 = system: A498
CCRF-CEM = system: CCRF-CEM
DLD-1 = system: DLD-1

Measured: GI50

CC1=C[P+](Cc2ccccc2)(c2ccccc2)CC1 (stereo unspecified)
88.1 µM: HCT-15
inactive: SK-OV-3 > 100 µM | NCI-H23 > 100 µM | M14 77.6 µM | UACC-62 66.5 µM | 786-0 > 100 µM | OVCAR-8 > 100 µM | KM-20L2 94.2 µM | OVCAR-3 47.8 µM | M19-MEL 29.9 µM | RXF 393 > 100 µM | SN12C > 100 µM | HL-60 36.3 µM | DMS-114 35.2 µM | RPMI-8226 28.6 µM | MOLT-4 > 100 µM | OVCAR-5 > 100 µM | SR 57 µM | SNB-75 > 100 µM | LXFL 529 23.3 µM | DMS-273 > 100 µM | LOX IMVI > 100 µM | ACHN > 100 µM | SK-MEL-28 81.1 µM | A549 > 100 µM | HT-29 77.3 µM | COLO 205 41.5 µM | TK-10 98.9 µM | UACC-257 21.5 µM | NCI-H522 65.2 µM | NCI-H460 > 100 µM | SK-MEL-5 27 µM | IGROV-1 96.8 µM

O=c1[nH]c(-c2ccccc2)nc2cc([N+](=O)[O-])c(/C(Cl)=C/c3ccccc3)cc12
7.82 µM: HCT-15
inactive: SK-OV-3 27.3 µM | NCI-H23 43.3 µM | UACC-62 15.1 µM | 786-0 35 µM | UO-31 99.5 µM | KM12 26.2 µM | OVCAR-8 19.7 µM | SK-MEL-2 21.9 µM | SF-268 29.2 µM | KM-20L2 33.7 µM | OVCAR-3 30 µM | M19-MEL 37.8 µM | RXF 393 14.4 µM | HCC 2998 > 100 µM | HOP-92 11.8 µM | OVCAR-4 18.3 µM | CAKI-1 15.1 µM | K562 7.5 µM | SN12C 36.6 µM | SW-620 23.6 µM | U-251 28.6 µM | NCI-H226 > 100 µM | SNB-19 41 µM | DMS-114 35.7 µM | RPMI-8226 16.1 µM | MOLT-4 50.8 µM | OVCAR-5 > 100 µM | EKVX 46.5 µM | SF-539 25.2 µM | SF-295 20.7 µM | SR 31.1 µM | SNB-75 22.3 µM | LXFL 529 16.4 µM | DMS-273 29.1 µM | SNB-78 35 µM | ACHN 68.2 µM | HCT-116 21 µM | SK-MEL-28 26.2 µM | A549 23.2 µM | HT-29 > 10 µM | COLO 205 21.5 µM | TK-10 27.7 µM | UACC-257 16.1 µM | NCI-H522 17.3 µM | SK-MEL-5 16.1 µM | IGROV-1 55 µM | Malme-3M 24.3 µM

O=[N+]([O-])c1ccc2c(c1)OCCOCCOc1ccc([N+](=O)[O-])cc1OCCOCCO2
> 100 µM: HCT-15
inactive: SK-OV-3 > 100 µM | NCI-H23 > 100 µM | M14 > 100 µM | UACC-62 > 100 µM | 786-0 > 100 µM | UO-31 > 100 µM | KM12 > 100 µM | OVCAR-8 > 100 µM | SK-MEL-2 > 100 µM | SF-268 > 100 µM | KM-20L2 50.9 µM | OVCAR-3 > 100 µM | RXF 393 > 100 µM | HCC 2998 > 100 µM | OVCAR-4 > 100 µM | CAKI-1 > 100 µM | HOP-62 > 100 µM | K562 > 100 µM | SN12C > 100 µM | HL-60 > 100 µM | SW-620 > 100 µM | U-251 > 100 µM | NCI-H226 > 100 µM | SNB-19 > 100 µM | DMS-114 > 100 µM | RPMI-8226 > 100 µM | MOLT-4 > 100 µM | OVCAR-5 > 100 µM | EKVX > 100 µM | SF-539 > 100 µM | A498 > 100 µM | SF-295 > 100 µM | SR > 100 µM | SNB-75 > 100 µM | CCRF-CEM > 100 µM | DMS-273 > 100 µM | LOX IMVI > 100 µM | SNB-78 > 100 µM | ACHN > 100 µM | HCT-116 > 100 µM | SK-MEL-28 > 100 µM | A549 > 100 µM | HT-29 > 100 µM | COLO 205 > 100 µM | TK-10 > 100 µM | UACC-257 > 100 µM | NCI-H522 > 100 µM | NCI-H460 > 100 µM | SK-MEL-5 > 100 µM | IGROV-1 > 100 µM | Malme-3M > 100 µM

Nc1n[nH]c(CCCCCCCc2nnc(N)[nH]2)n1
> 100 µM: HCT-15
inactive: SK-OV-3 > 100 µM | NCI-H23 > 100 µM | M14 > 100 µM | UACC-62 > 100 µM | UO-31 > 100 µM | KM12 > 100 µM | SK-MEL-2 > 100 µM | SF-268 > 100 µM | DLD-1 > 100 µM | OVCAR-3 > 100 µM | M19-MEL > 100 µM | RXF 393 > 100 µM | HCC 2998 > 100 µM | OVCAR-4 > 100 µM | HOP-62 > 100 µM | K562 > 100 µM | SN12C > 100 µM | HL-60 > 100 µM | U-251 > 100 µM | SNB-19 > 100 µM | DMS-114 > 100 µM | RPMI-8226 > 100 µM | MOLT-4 > 100 µM | OVCAR-5 > 100 µM | EKVX > 100 µM | SF-539 > 100 µM | A498 > 100 µM | SR > 100 µM | SNB-75 > 100 µM | CCRF-CEM > 100 µM | LXFL 529 > 100 µM | LOX IMVI > 100 µM | SNB-78 > 100 µM | ACHN > 100 µM | HCT-116 > 100 µM | SK-MEL-28 > 100 µM | HT-29 > 100 µM | TK-10 > 100 µM | UACC-257 > 100 µM | NCI-H522 > 100 µM | NCI-H460 > 100 µM | Malme-3M > 100 µM
